Measurements reported in PMC9917560, “Design, Synthesis and Antimicrobial Evaluation of New N-(1-Hydroxy-1,3-dihydrobenzo[c][1,2]oxaborol-6-yl)(hetero)aryl-2-carboxamides as Potential Inhibitors of Mycobacterial Leucyl-tRNA Synthetase” (International Journal of Molecular Sciences, 2023).
Values after ≈ are worked out from the molar mass of the structure shown. Like-named read-outs stand apart in the source and are kept apart here.

What was measured:
[1] = test system: Mycolicibacterium aurum DSM 43,999 (ATCC 23366); assay: Antimycobacterial microdilution (resazurin) vs M. aurum; assay type: cell-based; conditions: Middlebrook 7H9, resazurin, read-out: MIC M. aurum
[2] = test system: Aspergillus flavus CCM 8363; assay: Antifungal microdilution broth (EUCAST); assay type: cell-based; conditions: Aspergillus flavus, read-out: MIC Aspergillus flavus
[3] = test system: Mycobacterium avium DSM 44,156 (ATCC 25291); assay: Antimycobacterial microdilution (resazurin) vs M. avium; assay type: cell-based; conditions: Middlebrook 7H9, resazurin, read-out: MIC M. avium
[4] = test system: Staphylococcus aureus subsp. aureus CCM 4223 (ATCC 29213); assay: Antibacterial microdilution broth (EUCAST); assay type: cell-based; conditions: read-out: MIC Staphylococcus aureus subsp. aureus
[5] = test system: Candida albicans CCM 8320 (ATCC 24433); assay: Antifungal microdilution broth (EUCAST); assay type: cell-based; conditions: Candida albicans, read-out: MIC Candida albicans
[6] = test system: Aspergillus fumigatus ATCC 204305; assay: Antifungal microdilution broth (EUCAST); assay type: cell-based; conditions: Aspergillus fumigatus, read-out: MIC Aspergillus fumigatus
[7] = test system: Pseudomonas aeruginosa CCM 3955 (ATCC 27853); assay: Antibacterial microdilution broth (EUCAST); assay type: cell-based; conditions: read-out: MIC Pseudomonas aeruginosa
[8] = test system: Candida krusei CCM 8271 (ATCC 6258); assay: Antifungal microdilution broth (EUCAST); assay type: cell-based; conditions: Pichia kudriavzevii, read-out: MIC Candida krusei
[9] = test system: methicillin-resistant Staphylococcus aureus subsp. aureus (MRSA) CCM 4750 (ATCC 43300); assay: microbe, parasite or virus in culture; assay type: cell-based; conditions: read-out: MIC Methicillin-resistant Staphylococcus aureus subsp. aureus
[10] = test system: Mycobacterium tuberculosis H37Rv CNCTC My 331/88 (ATCC 27294); assay: Microplate Alamar Blue assay vs Mtb H37Rv; assay type: cell-based; conditions: Mycobacterium tuberculosis
[11] = test system: Trichophyton interdigitale CCM 8377 (ATCC 9533); assay: Antifungal microdilution broth (EUCAST); assay type: cell-based; conditions: Trichophyton interdigitale, read-out: MIC Trichophyton interdigitale
[12] = test system: Mycobacterium tuberculosis H37Ra ITM-M006710 (ATCC 9431); assay: Antimycobacterial microdilution (resazurin) vs Mtb H37Ra; assay type: cell-based
[13] = test system: Enterococcus faecalis CCM 4224 (ATCC 29212); assay: Antibacterial microdilution broth (EUCAST); assay type: cell-based; conditions: read-out: MIC Enterococcus faecalis
[14] = test system: Escherichia coli CCM 3954 (ATCC 25922); assay: Antibacterial microdilution broth (EUCAST); assay type: cell-based; conditions: Escherichia coli, read-out: MIC Escherichia coli
[15] = test system: Candida parapsilosis CCM 8260 (ATCC 22019); assay: Antifungal microdilution broth (EUCAST); assay type: cell-based; conditions: Lodderomyces parapsilosis, read-out: MIC Candida parapsilosis
[16] = test system: Lichtheimia corymbifera CCM 8077; assay: Antifungal microdilution broth (EUCAST); assay type: cell-based; conditions: Lichtheimia corymbifera, read-out: MIC Lichtheimia corymbifera
[17] = test system: Klebsiella pneumoniae CCM 4415 (ATCC 10031); assay: Antibacterial microdilution broth (EUCAST); assay type: cell-based; conditions: Klebsiella pneumoniae, read-out: MIC Klebsiella pneumoniae
[18] = test system: Acinetobacter baumannii DSM 30007 (ATCC 19606); assay: Antibacterial microdilution broth (EUCAST); assay type: cell-based; conditions: read-out: MIC Acinetobacter baumannii
[19] = test system: Candida tropicalis CCM 8264 (ATCC 750); assay: Antifungal microdilution broth (EUCAST); assay type: cell-based; conditions: read-out: MIC Candida tropicalis
[20] = test system: Staphylococcus epidermidis CCM 4418 (ATCC 12228); assay: Antibacterial microdilution broth (EUCAST); assay type: cell-based; conditions: read-out: MIC Staphylococcus epidermidis
[21] = test system: Mycolicibacterium smegmatis DSM 43,465 (ATCC 607); assay: Antimycobacterial microdilution (resazurin) vs M. smegmatis; assay type: cell-based; conditions: Middlebrook 7H9, resazurin, read-out: MIC M. smeg.
HepG2 cell line = assay: Cytotoxicity screening, CellTiter 96 assay; conditions: Homo sapiens, HepG2, 24 h, read-out: IC50 HepG2
[22] = test system: Mycobacterium kansasii DSM 44,162 (ATCC 12478); assay: Antimycobacterial microdilution (resazurin) vs M. kansasii; assay type: cell-based; conditions: read-out: MIC M. kansasii
Mtb laboratory ID MATI = assay type: cell-based, Mycobacterium tuberculosis; conditions: for Susceptibility: CLSI breakpoints 2021
Mtb laboratory ID IZAK = assay type: cell-based, Mycobacterium tuberculosis; conditions: for Susceptibility: CLSI breakpoints 2020
[23] = Middlebrook 7H9, resazurin, recalculated from µg/mL, read-out: MIC Mtb H37Ra

Structure (SMILES): O=C(Nc1ccc2c(c1)B(O)OC2)c1nc2ccccc2[nH]c1=O [Compound 18, N-(1-hydroxy-1,3-dihydrobenzo[c][1,2]oxaborol-6-yl)-3-oxo-3,4-dihydroquinoxaline-2-carboxamide]
- melting point: 348.9 to 350.2 °C (dec.)
- MIC [1]: 24.3 µM (≈ 7.81 µg/mL)
- MIC ([2]; CCM8363, 24h incubation): > 125 µM
- MIC ([2]; CCM8363, 48h incubation): > 125 µM
- MIC ([3]; Mycobacterium avium): 48.7 µM (≈ 15.6 µg/mL)
- MIC ([4]; 24h incubation): > 500 µM
- MIC ([4]; 48h incubation): > 500 µM
- MIC ([5]; 24h incubation): > 125 µM
- MIC ([5]; 48h incubation): > 125 µM
- MIC ([6]; ATCC204305, 24h incubation): > 125 µM
- MIC ([6]; ATCC204305, 48h incubation): > 125 µM
- MIC ([7]; 24h incubation): > 500 µM
- MIC ([7]; 48h incubation): > 500 µM
- MIC ([8]; 24h incubation): > 125 µM
- MIC ([8]; 48h incubation): > 125 µM
- MIC ([9]; 24 h): > 500 µM
- MIC ([9]; 48 h): > 500 µM
- MIC ([10]; pH 6.6, read-out: MIC Mtb H37Rv, MABA, Middlebrook 7H9 pH 6.6, recalculated from µg/mL): > 311 µM
- MIC ([11]; 72h incubation): > 125 µM
- MIC ([11]; 120h incubation): > 125 µM
- MIC ([12]; read-out: MIC Mtb H37Ra, Middlebrook 7H9, resazurin, recalculated from µg/mL): > 1850 µM
- MIC ([13]; 24h incubation): > 500 µM
- MIC ([13]; 48h incubation): > 500 µM
- MIC ([14]; 24h incubation): > 500 µM
- MIC ([14]; 48h incubation): > 500 µM
- MIC ([15]; 24h incubation): > 125 µM
- MIC ([15]; 48h incubation): > 125 µM
- MIC ([16]; CCM8077, 24h incubation): > 125 µM
- MIC ([16]; CCM8077, 48h incubation): > 125 µM
- MIC ([17]; 24h incubation): > 500 µM
- MIC ([17]; 48h incubation): > 500 µM
- MIC ([18]; 24h incubation): > 500 µM
- MIC ([18]; 48h incubation): > 500 µM
- MIC ([19]; 24h incubation): > 125 µM
- MIC ([19]; 48h incubation): > 125 µM
- MIC ([20]; 24h incubation): > 500 µM
- MIC ([20]; 48h incubation): > 500 µM
- MIC [21]: 24.3 µM (≈ 7.81 µg/mL)
- IC50 (HepG2 cell line): 244 µM
- MIC [22]: > 1850 µM

Structure (SMILES): O=C(Nc1ccc2c(c1)B(O)OC2)c1ccc2ccccc2n1 [Compound 19, N-(1-hydroxy-1,3-dihydrobenzo[c][1,2]oxaborol-6-yl)quinoline-2-carboxamide]
- melting point: 201 to 203.1 °C
- MIC [1]: 25.7 µM (≈ 7.81 µg/mL)
- MIC ([2]; CCM8363, 24 h): > 125 µM
- MIC ([2]; CCM8363, 48 h): > 125 µM
- MIC [3]: 25.68 µM (≈ 7.81 µg/mL)
- MIC ([3]; Mycobacterium avium): 25.6 µM (≈ 7.78 µg/mL)
- MIC ([4]; 24 h): 125 µM (≈ 38 µg/mL)
- MIC ([4]; 48 h): 125 µM (≈ 38 µg/mL)
- MIC ([5]; 24 h): > 125 µM
- MIC ([5]; 48 h): > 125 µM
- MIC ([6]; ATCC204305, 24 h): > 125 µM
- MIC ([6]; ATCC204305, 48 h): > 125 µM
- MIC ([7]; 24 h): > 125 µM
- MIC ([7]; 48 h): > 125 µM
- MIC ([8]; 24 h): > 125 µM
- MIC ([8]; 48 h): > 125 µM
- MIC ([9]; 24 h): > 125 µM
- MIC ([9]; 48 h): > 125 µM
- MIC ([10]; pH 6.6, MABA, Middlebrook 7H9 pH 6.6, recalculated from µg/mL, read-out: MIC Mtb H37Rv): 82.2 µM (≈ 25 µg/mL)
- MIC ([11]; 72 h): > 125 µM
- MIC ([11]; 120 h): > 125 µM
- MIC [12, 23]: 206 µM (≈ 62.5 µg/mL)
- MIC ([13]; 24 h): > 125 µM
- MIC ([13]; 48 h): > 125 µM
- MIC ([14]; 24 h): > 125 µM
- MIC ([14]; 48 h): > 125 µM
- MIC ([15]; 24 h): > 125 µM
- MIC ([15]; 48 h): > 125 µM
- MIC ([16]; CCM8077, 24 h): > 125 µM
- MIC ([16]; CCM8077, 48 h): > 125 µM
- MIC ([17]; 24 h): > 125 µM
- MIC ([17]; 48 h): > 125 µM
- MIC ([18]; 24 h): > 125 µM
- MIC ([18]; 48 h): > 125 µM
- MIC ([19]; 24 h): > 125 µM
- MIC ([19]; 48 h): > 125 µM
- MIC ([20]; 24 h): > 125 µM
- MIC ([20]; 48 h): > 125 µM
- MIC [21]: 25.7 µM (≈ 7.81 µg/mL)
- IC50 (HepG2 cell line): 467 µM
- MIC [22]: 206 µM (≈ 62.5 µg/mL)

Structure (SMILES): NC(=O)c1cnccn1 [PZA, pyrazinamide]
- Concentration (Mtb laboratory ID MATI; strain MATI, CLSI 2021): >1039.70 µM
- Susceptibility (Mtb laboratory ID MATI; strain MATI): resistant
- Concentration (Mtb laboratory ID IZAK; strain IZAK, CLSI 2020): >129.96 µM
- Susceptibility (Mtb laboratory ID IZAK; strain IZAK): resistant

Structure (SMILES): CO[C@H]1/C=C/O[C@@]2(C)Oc3c(C)c(O)c4c(O)c(c(/C=N/N5CCN(C)CC5)c(O)c4c3C2=O)NC(=O)/C(C)=C\C=C\[C@H](C)[C@H](O)[C@@H](C)[C@@H](O)[C@@H](C)[C@H](OC(C)=O)[C@@H]1C [RIF, rifampicin, reference compound]
- MIC [1]: 0.47 µM (≈ 0.387 µg/mL)
- MIC ([3]; Mycobacterium avium): 0.08 µM (≈ 0.0658 µg/mL)
- Concentration (Mtb laboratory ID MATI): >9.72 µM
- Susceptibility (Mtb laboratory ID MATI; strain MATI): resistant
- MIC [12, 23]: 0.00759 µM (≈ 0.00625 µg/mL)
- MIC [21]: 15.2 µM (≈ 12.5 µg/mL)
- Concentration (Mtb laboratory ID IZAK): >9.72 µM
- Susceptibility (Mtb laboratory ID IZAK; strain IZAK): resistant
- MIC ([22]; Middlebrook 7H9, resazurin): 0.06 µM (≈ 0.0494 µg/mL)

Structure (SMILES): [H]/N=C(/N)N[C@H]1[C@H](O)[C@@H](O)[C@H](O[C@@H]2O[C@@H](C)[C@](O)(C=O)[C@H]2O[C@@H]2O[C@@H](CO)[C@H](O)[C@@H](O)[C@@H]2NC)[C@@H](N/C(N)=N\[H])[C@@H]1O [STM, streptomycin]
- Concentration (Mtb laboratory ID MATI; strain MATI, CLSI 2021): >27.51 µM
- Susceptibility (Mtb laboratory ID MATI; strain MATI): resistant
- Concentration (Mtb laboratory ID IZAK; strain IZAK, CLSI 2020): 6.88 µM
- Susceptibility (Mtb laboratory ID IZAK; strain IZAK): resistant
